Assay results: US20070010484A1, “Method for treating or inhibiting the effects of injuries or diseases that result in neuronal degeneration and method for promoting neurogenesis” (YEDA RESEARCH AND DEVELOPMENT CO. LTD., priority 2003, published 2007)

Legend:
[1] = system: retinal ganglion cells (RGCs); test: Experimental autoimmune uveitis (EAU), RGC survival; type: in vivo; settings: R16-immunized Lewis rats, i.p. on days 3, 6, 9, 12 and 17; counted 3 weeks after immunization; mean±SD
Description: Induction of experimental autoimmune uveitis. To induce experimental autoimmune uveitis (EAU), Lewis rats were immunized with R16 (30 μg), a peptide derived from an ocular antigen IRBP emulsified in CFA containing 2.5 mg/ml M. tuberculosis. A total volume of 100 μl was injected s.c. into each rat at the root of the tail. Rats were then divided into three groups. On days 3, 6, 9, 12 and 17 after immunization the rats in the first group were injected i.p. with CSPG-DS (15 μg/rat), and rats in the second group were injected i.p. with methylprednisolone (MP. 30 mg/kg; Solu-Medrol, 125 mg/ml, Pharmacia & Upjohn, Puurs, Belgium). Rats in third group were left untreated.

PC12 cells [2] = test: Neurite outgrowth assay in NGF-stimulated PC12 cells; type: cell-based, rat; settings: PC12 cells, NGF 10 ng/ml
Description: PC12 cell line: Rat pheochromocytoma (PC12) cells were cultured in DMEM containing 8% horse serum and either 8% FCS (culture medium) or 1% FCS (differentiation medium), and antibiotics. For assays of neurite outgrowth, the cells were plated (10^5 cell/well) on 13-mm glass coverslips, precoated with collagen (500 μg/ml) in 24-well plates. Neurite outgrowth assays: PC12 cells were cultured for 24-72 h while being stimulated with 10 ng/ml NGF, with or without CSPG-DSs. Cell morphology was visualized under a phase-contrast microscope and neurite lengths were measured using ImagePro. At least 200 cells were measured for each condition.

PC12 cells [3] = test: LPA-induced neurite retraction in differentiated PC12 cells; type: cell-based, rat; settings: NGF-differentiated PC12 cells, LPA 1 μg/ml, 20 min
Description: PC12 cell line: Rat pheochromocytoma (PC12) cells were cultured in DMEM containing 8% horse serum and either 8% FCS (culture medium) or 1% FCS (differentiation medium), and antibiotics. For assays of neurite outgrowth, the cells were plated (10^5 cell/well) on 13-mm glass coverslips, precoated with collagen (500 μg/ml) in 24-well plates. Treatment of PC12 cells with lysophosphatidic acid (LPA). PC12 cells were placed and were differentiated for 3 days in the presence of 100 ng/ml NGF, in collagen-precoated culture dishes (Corning). […] The cells were then fixed with 4% paraformaldehyde (PFA) and analyzed by Nomarski microscopy. The longest neurite of each cell was measured and the results are expressed as their mean±SEM.

Compound: C[C@H]1C[C@@H]2[C@H]([C@@H](O)C[C@@]3(C)[C@H]2CC[C@]3(O)C(=O)COC(=O)CCC(=O)[O-])[C@@]2(C)C=CC(=O)C=C12.[Na+] [MP, reference compound]
- RGC loss relative to normal rats [1]: 59±1.6%

Compound: CC(=O)N[C@H]1C(O)O[C@H](CO)[C@H](O)[C@@H]1O[C@@H]1OC(C(=O)O)=C[C@H](O)[C@H]1O (stereo partly drawn) [Di-0S, 2-acetamido-2-deoxy-3-O-(β-D-gluco-4-enepyranosyluronic acid)-D-galactose]
- effect on neurite outgrowth (PC12 cells [2]): no effect

Compound: lysophosphatidic acid [LPA, reference compound]
- neurite collapse by LPA alone (PC12 cells [3]): induced neurite collapse
